This test has as its target T1, hCRTH2 (Homo sapiens, UniProt Q9Y5Y4).
T1 construct: expressed in transfected cells; host or cells: HEK (human embryonic kidney) cells expressing hCRTH2; membrane preparation
T1 sequence (Q9Y5Y4 1-395): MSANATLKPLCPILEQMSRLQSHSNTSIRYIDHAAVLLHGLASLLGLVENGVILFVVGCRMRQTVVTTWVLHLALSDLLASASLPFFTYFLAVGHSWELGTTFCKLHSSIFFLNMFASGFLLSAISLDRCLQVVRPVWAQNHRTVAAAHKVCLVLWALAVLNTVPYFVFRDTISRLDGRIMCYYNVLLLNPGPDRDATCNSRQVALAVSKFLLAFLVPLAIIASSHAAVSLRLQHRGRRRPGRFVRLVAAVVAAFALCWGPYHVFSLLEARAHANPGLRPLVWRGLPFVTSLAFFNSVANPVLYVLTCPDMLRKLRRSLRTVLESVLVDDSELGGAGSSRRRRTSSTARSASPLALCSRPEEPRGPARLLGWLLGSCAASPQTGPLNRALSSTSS
The test can be described thus: Radioligand binding assay ([3H]PGD2 competition, HEK-hCRTH2 membranes). The procedure, abridged: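 HEK-hCRTH2 membranes, 8-20 μg; [3H]PGD2 3.0 nM; 50 mM Tris-HCl pH 7.4/1 mM EDTA/2 mM MnCl2; DMSO 1%; 60 min RT; NSB 10 μM PGD2; filtration, scintillation counting.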

Setting [1] is: [3H]PGD2 binding, rated A-E (Table A).

The record followed here is patent publication US9469615B2, “Quinoxalines and AZA-quinoxalines as CRTH2 receptor modulators” (Merck Sharp & Dohme Corp., priority 2010, dated 2016).

The Ki is a measure of affinity in units of concentration, obtained from inhibition or displacement. Low values mean higher affinity, high ones lower affinity.

In turn, `C[C@@H](CCc1nc2cc(C(=O)N[C@@H]3CCCc4ccccc43)ccc2nc1-c1ccc(F)cc1)CC(=O)O` [compound 440, (S)-5-(3-(4-fluorophenyl)-7-(((R)-1,2,3,4-tetrahydronaphthalen-1-yl)carbamoyl)quinoxalin-2-yl)-3-methylpentanoic acid] registered a Ki ([3H]PGD2 competition, Table B) of 0.1 to 2 nM. Still for that read-out and setting: as for `O=C(O)CCCCc1nc2cc(C(=O)N3CCC(n4ccc5ccccc54)CC3)ccc2nc1-c1ccc(Cl)cc1` [compound 338, 5-(7-(4-(1H-indol-1-yl)piperidine-l-carbonyl)-3-(4-chlorophenyl)quinoxalin-2-yl)pentanoic acid], the figure is 2.1 to 20 nM. Still for that read-out and setting: as for `O=C(N[C@@H]1CCCc2cc(Cl)ccc21)c1ccc2nc(-c3ccc(F)cc3)c(CCCC(F)(F)C(=O)O)nc2c1` [compound 475, (R)-5-(7-((6-chloro-1,2,3,4-tetrahydronaphthalen-1-yl)carbamoyl)-3-(4-fluorophenyl)quinoxalin-2-yl)-2,2-difluoropentanoic acid], the figure is 2.1 to 20 nM. For the molecule `N#Cc1ccc(CNC(=O)c2ccc3nc(-c4ccc(F)cc4)c(CCCCC(=O)O)nc3c2)cc1` [compound 104, 7-[[[(4-cyanophenyl)methyl]amino]carbonyl]-3-(4-fluorophenyl)-2-quinoxalinepentanoic acid], under setting [1], the inhibition constant (Ki) is 2.1 to 20 nM. In turn, `O=C(O)CCCCc1nc2cc(C(=O)N3CCC(c4ccccc4)CC3)ccc2nc1-c1ccsc1` [26S, 7-[(4-phenyl-1-piperidinyl)carbonyl]-3-(3-thienyl)-2-quinoxalinepentanoic acid] came in with a Ki under setting [1] of 0.1 to 2 nM. Still for that read-out and setting: as for `CN1C(=O)C2(CCN(C(=O)c3ccc4nc(-c5ccccc5)c(CCCCC(=O)O)nc4c3)CC2)c2ccccc21` [compound 119], the figure is 2.1 to 20 nM. For the molecule `C[C@H]1CN(c2ccccc2)CCN1C(=O)c1ccc2nc(-c3ccc(F)cc3)c(CCCCC(=O)O)nc2c1` [compound 515, (S)-5-(3-(4-fluorophenyl)-7-(2-methyl-4-phenylpiperazine-1-carbonyl)quinoxalin-2-yl)pentanoic acid], the Ki ([3H]PGD2 competition, Table B) was 2.1 to 20 nM. In the case of `C[C@H](CCc1nc2cc(C(=O)N[C@H]3CCCc4ccccc43)ccc2nc1-c1ccccc1)CC(=O)O` [compound 277, (R)-3-methyl-5-(3-phenyl-7-(((S)-1,2,3,4-tetrahydronaphthalen-1-yl)carbamoyl)quinoxalin-2-yl)pentanoic acid], the Ki ([3H]PGD2 competition, Table B) was 2.1 to 20 nM. As to `O=C(O)CCCCc1nc2cc(C(=O)N[C@@H]3CCOc4ccc(F)cc43)ccc2nc1-c1ccccc1` [compound 641, (R)-5-(7-((6-fluoro-chroman-4-yl)carbamoyl)-3-phenylquinoxalin-2-yl)pentanoic acid], the inhibition constant Ki ([3H]PGD2 competition, Table B) was 2.1 to 20 nM. On to `CC(NC(=O)c1ccc2nc(-c3ccc(C(F)(F)F)cc3)c(CCCCC(=O)O)nc2c1)c1ccc(-c2ccccc2)cc1` (racemic) [4E, 7-[[(1-[1,1′-biphenyl]-4-ylethyl)amino]carbonyl]-3-[4-(trifluoromethyl)-phenyl]-2-quinoxaline-pentanoic acid], for which, under setting [1], the inhibition constant Ki is 0.1 to 2 nM. The same measure, in the same setting: as for `C[C@H](NC(=O)c1ccc2nc(-c3ccccc3)c(CCCCC(=O)O)nc2c1)c1ccc(F)cc1` [compound 235, 7-[[[1(S)-(4-fluorophenyl)ethyl]amino]carbonyl]-3-phenyl-2-quinoxalinepentanoic acid], the figure is 2.1 to 20 nM. Under “[3H]PGD2 competition, Table B”, `N#Cc1cccnc1N1CCN(C(=O)c2ccc3nc(-c4ccc(F)cc4)c(CCCCC(=O)O)nc3c2)CC1` [compound 358, 5-(7-(4-(3-cyanopyridin-2-yl)piperazine-l-carbonyl)-3-(4-fluorophenyl)quinoxalin-2-yl)pentanoic acid] came in with a Ki of 2.1 to 20 nM. Consider `O=C(O)C1CC(Cc2nc3cc(C(=O)N4CCC(c5ccccc5)CC4)ccc3nc2-c2ccc(Cl)cc2)C1` (stereo not shown) [compound 30, 3-((3-(4-chlorophenyl)-7-(4-phenylpiperidine-1-carbonyl)quinoxalin-2-yl)methyl)cyclobutanecarboxylic acid], for which the inhibition constant Ki under setting [1] is 2.1 to 20 nM.
